According to ChEMBL document CHEMBL3351661, “Structure-activity relationship studies of antiplasmodial aminomethylthiazoles” (Bioorg Med Chem Lett, 2014):
Converted amounts (≈) assume the structure as drawn.

Key:
[1] = Aqueous kinetic solubility at pH 7.4 by turbidimetric assay; type: physicochemical; settings: read-out: Kinetic_solubility
Plasmodium falciparum = test: microbe, parasite or virus in culture; settings: NF54
Description: Antiplasmodial activity against chloroquine-sensitive Plasmodium falciparum NF54 asexual erythrocyte stages by parasite lactate dehydrogenase assay

Row | SMILES | solubility kinetic [1] [µg/mL] | IC50 (Plasmodium falciparum) [µM]
1 | NCc1csc(NC(=O)c2ccc(OC(F)(F)F)cc2)n1 | 40 (≈ 126 µM) | 43.9
2 | CC(C)(C)c1cc(C(=O)Nc2nc(CN)cs2)n(-c2ccccc2)n1 | 160 (≈ 450 µM) | 67.5
3 | NCc1csc(NC(=O)c2cccs2)n1 | 80 (≈ 334 µM) | 91.7
4 | Cc1cc(C(=O)Nc2nc(CN)cs2)n(Cc2ccccc2)n1 | 160 (≈ 489 µM) | 19.8
5 | NCc1csc(NC(=O)c2ccnn2Cc2ccccc2)n1 | > 200 | 43.7
6 | N#Cc1ccc(C(=O)Nc2nc(CN)cs2)cc1 | 20 (≈ 77.4 µM) | 146
7 | NCc1csc(NC(=O)c2ccc(F)cc2)n1 | 80 (≈ 318 µM) | 123
8 | C[C@H]1[C@H](OC(=O)CCC(=O)O)O[C@@H]2O[C@@]3(C)CC[C@H]4[C@H](C)CC[C@@H]1[C@@]24OO3 [ARTESUNATE] | – | 0.0052
9 | NCc1csc(NC(=O)c2ccc(C(F)(F)F)cc2)n1 | 40 (≈ 133 µM) | 40.2
10 | CC(C)(C)c1cc(C(=O)Nc2nc(CN)cs2)n(Cc2ccc(F)cc2F)n1 | – | 4.7
11 | NCc1csc(NC(=O)c2cnccn2)n1 | > 200 | 173
12 | NCc1csc(NC(=O)c2cscn2)n1 | 80 (≈ 333 µM) | 149

The next lines start with the values.

Row | solubility kinetic [1] [µg/mL] | IC50 (Plasmodium falciparum) [µM] | SMILES
13 | > 200 | 12.8 | CC(C)(C)c1cc(C(=O)Nc2nc(CN)cs2)n(Cc2ccc(Br)cc2)n1
14 | 80 (≈ 198 µM) | 1.84 | CC(C)(C)c1cc(C(=O)Nc2nc(CN)cs2)n(Cc2ccccc2Cl)n1
15 | > 200 | 12.1 | CC(C)(C)c1cc(C(=O)Nc2nc(CN)cs2)n(Cc2ccc(Cl)cc2)n1
16 | > 200 | 0.0203 | CC(C)(C)c1cc(C(=O)Nc2nc(CN)cs2)n(Cc2ccccc2)n1
17 | – | 7.59 | CC(C)(C)c1cc(C(=O)Nc2ccc(CN)c3ccccc23)n(Cc2ccccc2)n1
18 | 80 (≈ 217 µM) | 9.09 | CC(C)(C)c1cc(C(=O)Nc2ncc(CN)s2)n(Cc2ccccc2)n1
19 | 10 (≈ 23.5 µM) | 2.58 | CC(C)(C)c1ccc(Cn2nc(C(C)(C)C)cc2C(=O)Nc2nc(CN)cs2)cc1
20 | 40 (≈ 110 µM) | 0.125 | CC(C)(C)c1cc(C(=O)Nc2cccc(CN)n2)n(Cc2ccccc2)n1
21 | 40 (≈ 99.1 µM) | 2.03 | Cc1ccc(-c2cc(C(=O)Nc3nc(CN)cs3)n(Cc3ccccc3)n2)cc1
